# Where two headings read alike, the source gives them in different places.
# Key:
# [1] = cited from earlier work; for emission band maximum: literature
# [2] = Steady-state photoluminescence spectra (emission/excitation maxima); type: physicochemical
# Procedure: (§1) Photoluminescence characterization: All photoluminescence studies were carried with the PTI spectrofluorometer described below. For titrations, 2.5-mL aliquots were placed in the quartz cuvette and 0.1 mL of gel was added at every titration point with magnetic stirring. Titration data were plotted as I/Io vs. volume of gel added (where I=intensity of sample after addition of gel and 1o=intensity of pure aqueous gold phosphor solution). Lifetime data were analyzed using a xenon flash lamp or N2 laser systems for both the sample and a scatterer solution used to generate the instrument response function (IRF) used for deconvolution.
# Spectroscopic equipment: Steady-state luminescence spectra were acquired with a PTI QuantaMaster Model QM-4 scanning spectrofluorometer equipped with a 75-watt xenon lamp. The UVN is absorption spectra were measured at 1-nm resolution on either a diode array spectrometer (Hewlett-Packard, model 8543) or a Perkin-Elmer Lambda-900 double-beam UVN is/NIR absorption spectrophotometer.
# [3] = Time-resolved phosphorescence lifetime; type: physicochemical
# Procedure: as §1
# [4] = cited from earlier work
# [5] = solution, literature results, fitting error not given; cited from earlier work
smiles,measurement,setting,value
"O=S(=O)([O-])c1cccc([PH](c2cccc(S(=O)(=O)[O-])c2)(c2cccc(S(=O)(=O)[O-])c2)[Au]([PH](c2cccc(S(=O)(=O)[O-])c2)(c2cccc(S(=O)(=O)[O-])c2)c2cccc(S(=O)(=O)[O-])c2)[PH](c2cccc(S(=O)(=O)[O-])c2)(c2cccc(S(=O)(=O)[O-])c2)c2cccc(S(=O)(=O)[O-])c2)c1 [Na8[Au(TPPTS)3], tris[tris(3,3′,3″-trisulfonatophenyl)phosphine]aurate(I)]",emission band maximum,[1]; solid state at 77° K,486 nm
same,emission band maximum,[1]; solid state at room temperature,494 nm
same,"PL, soln. (RT), emission","[1]; solution, RT, literature results (broad)",513 nm
same,"PL, soln. (RT), excitation","[1]; solution, RT, literature results",293 nm
same,excitation maximum,[2]; aqueous solution of 0.001M,292 nm
same,emission maximum,[2]; solid state,500 nm
same,excitation maximum,[2]; solid state,356 nm
same,"PL, soln. (RT), emission, corrected","[2]; solution, RT, Corr.",nm exc.; 525 nm em.
same,"PL, soln. (RT), excitation, corrected","[2]; solution, RT, Corr.",285 nm
same,"PL, soln. (RT), emission, uncorrected","[2]; solution, RT, Uncorr.",510 nm
same,"PL, soln. (RT), excitation, uncorrected","[2]; solution, RT, Uncorr.",Uncorr.: 296 nm exc.;
same,phosphorescence lifetime,[3]; after addition of PNIPAM hydrogels to the aqueous solution,2.6 μs
same,phosphorescence lifetime,[3]; aqueous solution before addition of PNIPAM hydrogels,1.4 μs
same,"τ, soln. (RT)","[3]; aqueous solution, RT",2.04 ± 0.02 μs (FIGS.
same,water solubility,[4],highly water soluble
same,"τ, soln. (RT)",[5],1.9 μs (fitting error not given)

# Reference: US20120065614A1 (UNIVERSITY OF NORTH TEXAS, priority 2010, published 2012)
